According to patent publication EP4741420A1, “PHARMACEUTICAL COMPOSITION FOR PREVENTING OR TREATING OBESITY COMPRISING GLP ANALOGUE AS ACTIVE INGREDIENT” (priority 2023, dated 2025):
Where two headings read alike, the source gives them in different places. Numbered stars: 1 amine (or outer) side, 2 acyl side, 3 side chain; on linkers, the order of the positions; unused ones are H or OH. Side chains are listed from the residue outwards. Ends that are not written are not given here. Peptide text beside a SMILES is read from it. * marks the point of attachment. mPEG 3.4 kDa = 3.4 kDa maleimidated PEG on Cys; C18 diacid = O=C(O)CCCCCCCCCCCCCCCCC(=O)*; γGlu = O=C(O)[C@H](CCC(=O)[*:2])N[*:1]; Palmitoyl = CCCCCCCCCCCCCCCC(=O)*

T1: GLP-2 (Homo sapiens, UniProt O95838)
T1 sequence (O95838 1-553): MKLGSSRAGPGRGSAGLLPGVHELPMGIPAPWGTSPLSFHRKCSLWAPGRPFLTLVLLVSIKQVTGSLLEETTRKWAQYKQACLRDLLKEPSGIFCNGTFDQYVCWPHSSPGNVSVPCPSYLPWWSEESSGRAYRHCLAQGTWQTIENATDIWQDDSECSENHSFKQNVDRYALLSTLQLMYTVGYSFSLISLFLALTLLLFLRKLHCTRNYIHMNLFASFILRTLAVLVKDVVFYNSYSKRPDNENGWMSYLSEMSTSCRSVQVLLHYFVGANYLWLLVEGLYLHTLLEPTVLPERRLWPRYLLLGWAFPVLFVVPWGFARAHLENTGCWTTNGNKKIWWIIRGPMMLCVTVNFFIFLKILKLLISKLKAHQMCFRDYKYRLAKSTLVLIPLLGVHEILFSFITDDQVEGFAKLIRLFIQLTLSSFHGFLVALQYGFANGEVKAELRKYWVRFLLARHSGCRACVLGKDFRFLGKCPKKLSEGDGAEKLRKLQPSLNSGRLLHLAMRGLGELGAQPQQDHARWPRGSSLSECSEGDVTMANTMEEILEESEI


Key:
[1] = biological target: T1, GLP-2; test: GLP-2 activity, cell-based cAMP assay (same method as Example 2)
[2] = Mouse PK after single subcutaneous administration, LC-MS/MS of plasma; type: in vivo, mice; conditions: for AUC(0-t) / Cmax / half-life / Tmax: mouse, in vivo, sc; for Cmax: read-out: Cmax
Method: Each of the experimental groups and the control was subcutaneously administered once to the dorsal area of a total of 12 mice using a 1 mL syringe equipped with a 26-gauge needle at a dose of 0.2 mg/5 mL/kg. After drug administration, approximately 0.04 to 0.05 mL of blood was collected per individual at the time scheduled for the orbital vein (4 mice were alternately sampled), and the blood collection times were 1, 2, 4, 8, 24 ,32 ,48, 56, 72, 96, and 120 hours. All plasma samples were analyzed using a self-developed LC-MS/MS assay. Pharmacokinetic analysis of blood drugs was performed using non-compartmental analysis, and analysis of pharmacokinetic parameters was performed using Phoenix WinNolin 64 (Version. 8.3.5 340).

[3] = biological target: GLP-1R (on GLP-1R/CHO cells, DiscoverX 95-0062C2) (UniProt P43220 24-463); test: cell-based or functional assay
[4] = 0.2 mg/kg, C57BL/6N male mice, single subcutaneous dose 0.2 mg/5 mL/kg, plasma
[5] = 0.2 mg/kg, C57BL/6N male mice, single subcutaneous dose 0.2 mg/5 mL/kg, plasma, read-out: T1/2 (converted)
[6] = 0.2 mg/kg, C57BL/6N male mice, single subcutaneous dose 0.2 mg/5 mL/kg, plasma, read-out: Tmax

GLP-1R (on GLP-1R/CHO cells, DiscoverX 95-0062C2), sequence (P43220 24-463 limits assumed): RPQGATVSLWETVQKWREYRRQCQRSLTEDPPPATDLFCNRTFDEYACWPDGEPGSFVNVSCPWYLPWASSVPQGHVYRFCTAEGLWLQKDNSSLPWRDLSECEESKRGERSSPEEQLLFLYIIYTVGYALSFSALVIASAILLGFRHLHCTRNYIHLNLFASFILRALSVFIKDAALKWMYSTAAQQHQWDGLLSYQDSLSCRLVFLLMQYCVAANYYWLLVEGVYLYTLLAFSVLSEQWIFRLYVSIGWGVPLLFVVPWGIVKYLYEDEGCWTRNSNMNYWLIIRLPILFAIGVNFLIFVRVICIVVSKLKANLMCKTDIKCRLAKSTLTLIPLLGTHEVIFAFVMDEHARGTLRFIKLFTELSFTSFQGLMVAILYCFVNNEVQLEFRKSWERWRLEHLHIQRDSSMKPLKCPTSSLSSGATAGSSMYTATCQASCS

Molecule	AUC(0-t) [2, 4] [ng·h/mL]	Cmax [2, 4] [ng/mL]	half-life [2, 5] [h]	Tmax [2, 6] [h]	also measured
HGEGTFTSDLSTYLDALAARDFINWLIQTKITD [HU020]					EC50 ([1]; Example 5): 650 nM
CCCCCCCCCCCCCCCC(=O)N[C@@H](CCC(=O)NCCCC[C@H](NC(=O)[C@H](CCCCN)NC(=O)[C@H](CC(=O)O)NC(=O)[C@@H](NC(=O)[C@@H](NC(=O)[C@H](CCCCN)NC(=O)[C@@H](NC(=O)[C@H](CCC(N)=O)NC(=O)[C@@H](NC(=O)[C@H](CC(C)C)NC(=O)[C@H](Cc1c[nH]c2ccccc12)NC(=O)[C@H](CC(N)=O)NC(=O)[C@@H](NC(=O)[C@H](Cc1ccccc1)NC(=O)[C@H](CC(=O)O)NC(=O)[C@H](CCCNC(=N)N)NC(=O)[C@H](C)NC(=O)[C@H](C)NC(=O)[C@H](CC(C)C)NC(=O)[C@H](C)NC(=O)[C@H](CC(=O)O)NC(=O)[C@H](CC(C)C)NC(=O)[C@H](Cc1ccc(O)cc1)NC(=O)[C@@H](NC(=O)[C@H](CO)NC(=O)[C@H](CC(C)C)NC(=O)[C@H](CC(=O)O)NC(=O)[C@H](CO)NC(=O)[C@@H](NC(=O)[C@H](Cc1ccccc1)NC(=O)[C@@H](NC(=O)CNC(=O)[C@H](CCC(=O)O)NC(=O)C(C)(C)NC(=O)[C@@H](N)Cc1c[nH]cn1)[C@@H](C)O)[C@@H](C)O)[C@@H](C)O)[C@@H](C)CC)[C@@H](C)CC)[C@@H](C)O)[C@@H](C)CC)[C@@H](C)O)C(=O)O)C(=O)O [HU020M3] (HELM PEPTIDE1{H.[Aib].E.G.T.F.T.S.D.L.S.T.Y.L.D.A.L.A.A.R.D.F.I.N.W.L.I.Q.T.K.I.T.D.K.K}|PEPTIDE2{[CCCCCCCCCCCCCCCC(=O)[*:2]].[gGlu]}$PEPTIDE1,PEPTIDE2,35:R3-2:R2$$$V2.0)	5070	315	7	12	
CC[C@H](C)[C@H](NC(=O)[C@H](Cc1ccccc1)NC(=O)[C@H](CC(=O)O)NC(=O)[C@H](CCCNC(=N)N)NC(=O)[C@H](C)NC(=O)[C@H](C)NC(=O)[C@H](CC(C)C)NC(=O)[C@H](C)NC(=O)[C@H](CC(=O)O)NC(=O)[C@H](CC(C)C)NC(=O)[C@H](Cc1ccc(O)cc1)NC(=O)[C@@H](NC(=O)[C@H](CO)NC(=O)[C@H](CC(C)C)NC(=O)[C@H](CC(=O)O)NC(=O)[C@H](CO)NC(=O)[C@@H](NC(=O)[C@H](Cc1ccccc1)NC(=O)[C@@H](NC(=O)CNC(=O)[C@H](CCC(=O)O)NC(=O)C(C)(C)NC(=O)[C@@H](N)Cc1c[nH]cn1)[C@@H](C)O)[C@@H](C)O)[C@@H](C)O)C(=O)N[C@@H](CC(N)=O)C(=O)N[C@@H](Cc1c[nH]c2ccccc12)C(=O)N[C@@H](CC(C)C)C(=O)N[C@H](C(=O)N[C@@H](CCC(N)=O)C(=O)N[C@H](C(=O)N[C@@H](CCCCN)C(=O)N[C@H](C(=O)N[C@H](C(=O)N[C@@H](CC(=O)O)C(=O)N[C@@H](CCCCN)C(=O)N[C@@H](CCCCNC(=O)CC[C@H](NC(=O)CCCCCCCCCCCCCCCCC(=O)O)C(=O)O)C(=O)O)[C@@H](C)O)[C@@H](C)CC)[C@@H](C)O)[C@@H](C)CC [HU020M4] (HELM PEPTIDE1{H.[Aib].E.G.T.F.T.S.D.L.S.T.Y.L.D.A.L.A.A.R.D.F.I.N.W.L.I.Q.T.K.I.T.D.K.K}|PEPTIDE2{[O=C(O)CCCCCCCCCCCCCCCCC(=O)[*:2]].[gGlu]}$PEPTIDE1,PEPTIDE2,35:R3-2:R2$$$V2.0)	23800	810	10.7	8	half-life longer than that of semaglutide ([2]; mouse PK, relative to semaglutide): 1.5 fold
CC[C@H](C)[C@H](NC(=O)[C@H](Cc1ccccc1)NC(=O)[C@H](CC(=O)O)NC(=O)[C@H](CCCNC(=N)N)NC(=O)[C@H](C)NC(=O)[C@H](C)NC(=O)[C@H](CC(C)C)NC(=O)[C@H](CC(N)=O)NC(=O)[C@H](CC(=O)O)NC(=O)[C@H](CC(C)C)NC(=O)[C@@H](NC(=O)[C@@H](NC(=O)[C@H](CC(N)=O)NC(=O)[C@H](CCSC)NC(=O)[C@H](CCC(=O)O)NC(=O)[C@H](CC(=O)O)NC(=O)[C@H](CO)NC(=O)[C@H](Cc1ccccc1)NC(=O)[C@H](CO)NC(=O)CNC(=O)[C@H](CC(=O)O)NC(=O)[C@H](C)NC(=O)[C@@H](N)Cc1c[nH]cn1)[C@@H](C)O)[C@@H](C)CC)C(=O)N[C@@H](CC(N)=O)C(=O)N[C@@H](Cc1c[nH]c2ccccc12)C(=O)N[C@@H](CC(C)C)C(=O)N[C@H](C(=O)N[C@@H](CCC(N)=O)C(=O)N[C@H](C(=O)N[C@@H](CCCCN)C(=O)N[C@H](C(=O)N[C@H](C(=O)N[C@@H](CC(=O)O)C(=O)O)[C@@H](C)O)[C@@H](C)CC)[C@@H](C)O)[C@@H](C)CC [GLP-2 (Synthesized), GLP-2, reference compound]					GLP-2 activity Compared to GLP-2 ([1]; Example 5, relative to GLP-2): 100%
CC[C@H](C)[C@H](NC(=O)[C@H](Cc1ccccc1)NC(=O)[C@H](CC(=O)O)NC(=O)[C@H](CCCNC(=N)N)NC(=O)[C@H](C)NC(=O)[C@H](C)NC(=O)[C@H](CC(C)C)NC(=O)[C@H](C)NC(=O)[C@H](CC(=O)O)NC(=O)[C@H](CC(C)C)NC(=O)[C@H](Cc1ccc(O)cc1)NC(=O)[C@@H](NC(=O)[C@H](CO)NC(=O)[C@H](CC(C)C)NC(=O)[C@H](CC(=O)O)NC(=O)[C@H](CO)NC(=O)[C@@H](NC(=O)[C@H](Cc1ccccc1)NC(=O)[C@@H](NC(=O)CNC(=O)[C@H](CCC(=O)O)NC(=O)CNC(=O)[C@@H](N)Cc1c[nH]cn1)[C@@H](C)O)[C@@H](C)O)[C@@H](C)O)C(=O)N[C@@H](CC(N)=O)C(=O)N[C@@H](Cc1c[nH]c2ccccc12)C(=O)N[C@@H](CC(C)C)C(=O)N[C@H](C(=O)N[C@@H](CCC(N)=O)C(=O)N[C@H](C(=O)N[C@@H](CCCCN)C(=O)N[C@H](C(=O)N[C@H](C(=O)N[C@@H](CC(=O)O)C(=O)N[C@@H](CCCCN)C(=O)N[C@@H](CCCCNC(=O)CC[C@H](NC(=O)CCCCCCCCCCCCCCCCC(=O)O)C(=O)O)C(=O)O)[C@@H](C)O)[C@@H](C)CC)[C@@H](C)O)[C@@H](C)CC [HU020M1] (HELM PEPTIDE1{H.G.E.G.T.F.T.S.D.L.S.T.Y.L.D.A.L.A.A.R.D.F.I.N.W.L.I.Q.T.K.I.T.D.K.K}|PEPTIDE2{[O=C(O)CCCCCCCCCCCCCCCCC(=O)[*:2]].[gGlu]}$PEPTIDE1,PEPTIDE2,35:R3-2:R2$$$V2.0)					Tmax ([2]; male, C57BL/6N): 12 h; half-life ([2]; male, C57BL/6N): 13.8 h
CC[C@H](C)[C@H](NC(=O)[C@H](Cc1ccccc1)NC(=O)[C@H](CC(=O)O)NC(=O)[C@H](CCCNC(=N)N)NC(=O)[C@H](C)NC(=O)[C@H](C)NC(=O)[C@H](CC(C)C)NC(=O)[C@H](C)NC(=O)[C@H](CC(=O)O)NC(=O)[C@H](CC(C)C)NC(=O)[C@H](Cc1ccc(O)cc1)NC(=O)[C@@H](NC(=O)[C@H](CO)NC(=O)[C@H](CC(C)C)NC(=O)[C@H](CC(=O)O)NC(=O)[C@H](CO)NC(=O)[C@@H](NC(=O)[C@H](Cc1ccccc1)NC(=O)[C@@H](NC(=O)CNC(=O)[C@H](CCC(=O)O)NC(=O)C(C)(C)NC(=O)[C@@H](N)Cc1c[nH]cn1)[C@@H](C)O)[C@@H](C)O)[C@@H](C)O)C(=O)N[C@@H](CC(N)=O)C(=O)N[C@@H](Cc1c[nH]c2ccccc12)C(=O)N[C@@H](CC(C)C)C(=O)N[C@H](C(=O)N[C@@H](CCC(N)=O)C(=O)N[C@H](C(=O)N[C@@H](CCCCN)C(=O)N[C@H](C(=O)N[C@H](C(=O)N[C@@H](CC(=O)O)C(=O)N[C@@H](CCCCN)C(=O)N[C@@H](CCCCNC(=O)CC[C@H](NC(=O)CCCCCCCCCCCCCCCCCCC(=O)O)C(=O)O)C(=O)O)[C@@H](C)O)[C@@H](C)CC)[C@@H](C)O)[C@@H](C)CC [HU020M5] (HELM PEPTIDE1{H.[Aib].E.G.T.F.T.S.D.L.S.T.Y.L.D.A.L.A.A.R.D.F.I.N.W.L.I.Q.T.K.I.T.D.K.K}|PEPTIDE2{[O=C(O)CCCCCCCCCCCCCCCCCCC(=O)[*:2]].[gGlu]}$PEPTIDE1,PEPTIDE2,35:R3-2:R2$$$V2.0)	20500	661	15.2	8	
HGEGTFTSDLSTYLDALAARDFINWLIQTKITDKK([γGlu-C18 diacid]) [HU020M1]					GLP-1 activity (EC50, pM) [3]: 113 pM; GLP-1 activity, Compared to GLP-1 (Exendin-4) [3]: 6.3%
HGEGTFTSDLSTYLDALAAC(mPEG 3.4 kDa)DFINWLIQTKITDKK([γGlu-Palmitoyl]) [HU020M6]					GLP-1 activity (EC50, pM) [3]: 45.7 pM; GLP-1 activity, Compared to GLP-1 (Exendin-4) [3]: 15.5%
